{
  "source": "patent US10662225B2",
  "about": "“Backbone cyclized inhibitory peptides of myeloid differentiation factor 88 (MyD88)” (Yissum Research Development Company of the Hebrew …, priority 2016, dated 2020)",
  "key": {"[1]": {"assay": "Parallel Artificial Membrane Permeability Assay (PAMPA)", "assay_type": "in vitro ADME", "details": "in comparison to metoprolol", "from_the_text": "FIG. 12. Papp of 4×4MyDI in the PAMPA model in comparison to metoprolol."}, "NFkB activation": {"test_system": "NFkB activation", "assay": "NFkB-luciferase reporter in RAW 264.7 macrophages stimulated with LPS", "assay_type": "cell-based, mouse", "details": "RAW 264.7 NFkB-luc, 4 hours", "experimental": "FIG. 13. 4×4MyDI and Myr4×4MyDI block NFkB induction in response to LPS stimulation of RAW 264.7 NFkB-luc cells. RAW 264.7 murine macrophages were transfected with an NFkB-luciferase reporter gene and stimulated with LPS in the absence or presence of increasing concentrations of the inhibitors. After 4 hours cells were lysed and luminescence was recorded using a Tecan plate reader. BG denotes background.\nIn this assay the mouse macrophage RAW264.7 cell line is transfected with an NFkB-luciferase reporter construct and then cells are stimulated by exposure to bacterial LPS and light emission is measured after addition of luciferase substrate."}, "[2]": {"test_system": "MyD88-dependent signaling", "assay": "TNFα production by THP-1 derived macrophages stimulated with PAM3csk", "assay_type": "cell-based, human", "details": "THP-1 macrophages, PAM3csk overnight", "experimental": "FIG. 5. Human monocytic THP-1 cells were differentiated to macrophages and were stimulated with PAM3csk overnight in the absence or presence of the cyclic 4-carbon bridge peptide or 6-carbon bridge peptide. TNFα levels in the supernatants were determined by ELISA.\nBoth cyclic peptides were synthesized with the addition of a tryptophan group to the N-terminus to enable accurate quantification of the molecules."}, "[3]": {"assay": "Metabolic stability in plasma (quantitative HPLC)", "assay_type": "in vitro ADME, human", "experimental": "FIGS. 17A and 17B. 4×4MyDI is metabolically stable in comparison to the linear MyDI peptide. 4×4MyDI vs. linear MyDI heptapeptide were incubated independently in either human plasma […] or human plasma supplemented with Brush Border Membrane Vesicles (BBMV, 18B). At various time points the solution was sampled and the amount of remaining compound was determined by quantitative HPLC.\nPeptide backbone cyclization confers metabolic stability on peptides that are inherently susceptible to degradation by proteases. […] The stability of the compounds was then tested in plasma enriched with Brush Border Membrane Vesicles (BBMV). This system models the degradative conditions of the intestine."}, "MyD88 dimerization": {"biological_target": "T1, MyD88 dimerization (Homo sapiens, UniProt Q99836)", "T1 construct": "constructs encoding HA-tagged full length MyD88 and Flag-tagged full length MyD88; expressed in transfected cells; host or cells: HEK293", "T1 sequence (Q99836 whole entry)": "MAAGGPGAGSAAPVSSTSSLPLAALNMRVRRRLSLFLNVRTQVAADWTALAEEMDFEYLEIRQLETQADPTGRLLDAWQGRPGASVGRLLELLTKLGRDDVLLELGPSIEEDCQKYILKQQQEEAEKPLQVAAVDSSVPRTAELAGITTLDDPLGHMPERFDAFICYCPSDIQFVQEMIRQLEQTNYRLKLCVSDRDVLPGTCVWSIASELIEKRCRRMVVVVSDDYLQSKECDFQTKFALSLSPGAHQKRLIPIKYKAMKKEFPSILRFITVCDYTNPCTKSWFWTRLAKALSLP", "assay": "Co-immunoprecipitation of Flag-MyD88 with HA-MyD88 in HEK293 cells", "assay_type": "cell-based", "details": "HEK293, IL-1 stimulation; 4×4MyDI at 20, 2, 0.2 μM; Myr-4×4MyDI at 0.2 or 2000 nM", "experimental": "FIG. 10. 4×4MyDI blocks MyD88 dimerization. HEK293 cells were transfected with two plasmids, one encoding HA-MyD88 and the other encoding FLAG-MyD88 and after 48 hours the cells were either untreated (cont) or treated with 20 μM of the linear MyDI peptide, the scrambled version of the linear MyDI peptide (SEQ ID NO: 5,), or the 4×4MyDI at 20, 2, or 0.2 μM. After 3 h of treatment, cells were stimulated with recombinant human IL-1 (20 ng/ml) for 30 min and then lysed. Whole cell lysates (WCL) were immunoprecipitated with anti-HA beads (Thermo-Scientific) for 30 min and proteins were eluted with glycine Ph 2.0, neutralized, and loaded on an acrylamide gel for analysis. Proteins were transferred to nitrocellulose and the amount of Flag-MyD88 that co-precipitated with HA-MyD88 was detected by immunoblotting (IB) with anti-Flag antibody.\nFIGS. 14A and 14B. […] Proteins were transferred to nitrocellulose and the amount of FLAG-MyD88 that co-precipitated with HA-MyD88 was detected by immunoblotting (IB) with anti-FLAG antibody. […] Percent inhibition of co-immunoprecipitation was calculated by comparing densitometry of bands in the treated lanes to control. […]\nTLR and IL-1 receptor signaling proceeds through a multimeric protein signaling complex (the “Myddosome”) that is initiated by MyD88 homodimerization. […] Immunoprecipitated protein was eluted and analyzed by immunoblot using an antibody to Flag. […]"}},
  "note": "Numbered stars: 1 amine (or outer) side, 2 acyl side, 3 side chain; on linkers, the order of the positions; unused ones are H or OH. Bridge positions count the residues as written; N and C are the ends. Square brackets hold non-standard residues; d marks the D form. Peptide text beside a SMILES is read from it. CO = O=C([*:1])[*:2]; Nlys = NCCCCNCC(=O)O",
  "data": [
    {"smiles": "CC(C)C[C@@H]1NC(=O)[C@H](C(C)C)NC(=O)[C@H](CC(=O)O)NC(=O)[C@H](CCCNC(=N)N)NC(=O)CN(C(=O)[C@@H](N)Cc2c[nH]c3ccccc23)CCCCNC(=O)NCCCCN(CC(=O)NCC(=O)N[C@H](C(N)=O)[C@@H](C)O)C1=O", "note": "[4×4MyDI] (H-W[Nlys]RDVL[Nlys]GT-NH2; linker 2-7 via CO; N-terminus assumed)", "values": [
      {"measurement": "passive diffusion through a lipid layer (Papp PAMPA)", "setting": "[1]", "result": "does not diffuse well through a lipid layer"},
      {"measurement": "block of NFkB activation", "setting": "NFkB activation", "result": "block NFkB activation in a dose dependent manner"},
      {"measurement": "inhibition of TNFα production", "setting": "[2]", "result": "outperformed the 6-carbon bridge peptide"},
      {"measurement": "metabolised at 4 h", "setting": "[3]; human, human plasma, over the following two hours (hours 2-4), read-out: decrease of amount in plasma", "result": 20, "unit": "%"},
      {"measurement": "stability in plasma", "setting": "[3]; plasma, 4×4MyDI: first two hours", "result": "completely stable"},
      {"measurement": "MyD88 dimerization (Flag-MyD88 co-precipitated with HA-MyD88)", "setting": "MyD88 dimerization", "result": "dramatically reduces the dimerization"}
    ]}
  ]
}
